Source: patent publication US10941126B2, “Bridged bicycloalkyl-substituted aminothiazoles and their methods of use” (Temple University—Of The Commonwealth System of Higher …, priority 2017, dated 2021)

Experiments:
YB5 cells [1] = experiment: GFP reactivation in YB5 cells (flow cytometry); format: cell-based, human; conditions: for GFP reactivation activity: multiple doses, four-day drug treatment in YB5
YB5 cells [2] = experiment: GFP reactivation in YB5 cells (flow cytometry); format: cell-based, human; conditions: for Emax at 1 µM / Emax at 5 µM / Emax at 10 µM / Emax at 25 µM: Homo sapiens, 24 h; for Emax at 1 µM: read-out: relative activity to Depsipeptide @ 1 μM %; for Emax at 5 µM: read-out: relative activity to Depsipeptide @ 5 μM %; for Emax at 10 µM: read-out: relative activity to Depsipeptide @ 10 μM %; for Emax at 25 µM: read-out: relative activity to Depsipeptide @ 25 μM %
Description: To screen the compounds of the invention for epigenetic anti-cancer activity the YB5 cell-based system, which is derived from the human colon cancer cell line SW48, was used (Si et al., 2010, Cancer Res. 70:6968-6977; Raynal et al., 2012, Cancer Res. 72:1170-1181). YB5 cells contain a single insertion of cytomegalovirus (CMV) promoter driving green fluorescent protein (GFP) gene. GFP expression is silenced in >99.9% of YB5 cells by epigenetic mechanisms. In YB5 cells, the inserted GFP gene behaves similarly to endogenous tumor suppressor genes (TSGs) silenced by epigenetic mechanisms, and it can be reactivated by epigenetic anti-cancer agents such as DNA methylation inhibitors and/or HDAC inhibitors such as depsipeptide (Si et al., 2010, Cancer Res. 70:6968-6977; Raynal et al., 2012, Cancer Research, 72:1170-1181; Wu et al., 2008, Mol. Cell Biol, 28:3219-3235). Thus, reactivation of GFP expression and the resulting fluorescence is a measure of epigenetic anti-cancer activity.
The following procedure may be used to identify compounds of useful in the invention. YB5 cells cultured in L-15 medium supplemented with 10% fetal bovine serum and 1% P/S are treated for 24 hours with varying concentrations (50 nM, 100 nM, 500 nM, 1 μM, 5 μM, 10 μM, 25 μM, and 50 μM) of test compounds. After treatment, cells are trypsinized and re-suspended in cell culture media with propidium iodide (PI) to stain dead cells. Reactivation of GFP is measured using flow cytometry to identify the GFP positive population. The relative activities are expressed as the percent of the response compared to treatment with 20 nM HDACi depsipeptide for 24 hours. YB5 cells are grown in 1% CO2 atmosphere at 37° C.
NDL-3040 compound library consists of 3040 chemically diverse compounds that are semi-natural, derived from natural compounds, or synthetic compounds that are natural-compound-like. The small molecules were arrayed in 96-well plates as 10 mM stocks in 100% DMSO and were purchased from TimTec Inc. An aminothiazole analog library (93 small molecules) was also purchased from the same vendor and was in a 96-well plate format as 10 mM stocks in 100% DMSO. The 3040 compounds were screened at 25 μM for 24 hr. All plates were kept at −80° C. before use. YB5 cells growing in log phase (70-80% confluency) in 96-well plates were used. Each experimental 96-well plate contained 80 different compounds. Compounds were dispensed using an INTEGRA VIAFLO96 96-well pipette. After a 24 hr drug treatment, cells were trypsinized for 10 mins and re-suspended in L-15 medium containing propidium iodide (PI) to stain for dead cells. A total of 10000 cells per well were analyzed using Millipore Guava flow cytometer (EMD, Millipore). GFP positive percentage was calculated by excluding all the PI positive cells. After finishing the screening, the average Z-factor
For drug screening and dose response validations, GFP positive cells were detected by Millipore Guava flow cytometer (EMD, Millipore). Cell cycle analysis was performed using BD FACSCalibur™ by propidium iodide staining four days after drug treatment. Sub-G1 population percentage was also included to measure apoptotic cell proportion. Data were analyzed using FlowJo software version 10.2. For the cell differentiation analysis, cells were washed and stained with propidium iodide (PI), CD11 b (BD Biosciences, #562793) and the isotype control IgG (BD Biosciences, #555748). Flow cytometry analysis was performed on a Millipore Guava flow cytometer (EMD, Millipore). For the ID8 in vivo experiments, ascites was drained from 5-10 mice per group and incubated in ACK buffer (Thermo Fisher) to lyse red blood cells for 10 minutes, then washed. Ascites from each mouse was individually lysed and prepared for flow cytometry. Mononuclear cells collected were cultured for 4 hours in RPMI with 5% Fetal Bovine Serum and in the presence of Cell Stimulation Cocktail (plus protein transport inhibitors; eBioscience). […]

YB5 cells [3] = experiment: qPCR gene expression in YB5 cells; format: cell-based, human; conditions: 24 hr treatment
Experimental: Total RNA was extracted using TRIzol reagent (Invitrogen) following the manufacturer's protocol and RNA concentrations were measured using Nanodrop. cDNAs were synthesized using High Capacity cDNA Reverse Transcription Kit (ThermoFisher) and qPCR was performed using either ready-made TaqMan® assays or SYBR-green using custom-designed primers. All the data were analyzed using Applied Biosystems software (StepOne™ Software V2.3). For all experiments, relative expression levels of the target genes were determined by calculating the 2^−ΔΔCt values. All experiments were performed at least in triplicates. Either GAPDH or 18S rRNA was used as an internal normalization control for protein coding genes. RPLPO was used as an internal normalization control for ERVs. All SYBR-green primers were described previously and are listed in Table 1 along with TaqMan® probes used.

ID8 = ID8 ovarian cancer syngeneic immunocompetent mouse model; format: in vivo
Experimental: For drug screening and dose response validations, GFP positive cells were detected by Millipore Guava flow cytometer (EMD, Millipore). Cell cycle analysis was performed using BD FACSCalibur™ by propidium iodide staining four days after drug treatment. Sub-G1 population percentage was also included to measure apoptotic cell proportion. Data were analyzed using FlowJo software version 10.2. For the cell differentiation analysis, cells were washed and stained with propidium iodide (PI), CD11 b (BD Biosciences, #562793) and the isotype control IgG (BD Biosciences, #555748). Flow cytometry analysis was performed on a Millipore Guava flow cytometer (EMD, Millipore). For the ID8 in vivo experiments, ascites was drained from 5-10 mice per group and incubated in ACK buffer (Thermo Fisher) to lyse red blood cells for 10 minutes, then washed. Ascites from each mouse was individually lysed and prepared for flow cytometry. Mononuclear cells collected were cultured for 4 hours in RPMI with 5% Fetal Bovine Serum and in the presence of Cell Stimulation Cocktail (plus protein transport inhibitors; eBioscience). Cells were then washed and stained for cell surface markers including Live/Dead (eBioscience #65-0865-18), CD45 (BD Biosciences, #563891), CD3 (BD Biosciences, #560527), MHC II (Biolegend #107619, Isotype Control #400627), CD80 (BD Biosciences, #553769), CD86 (BD Biosciences, #558703) and CD11c (BD Biosciences, #564079). Flow cytometry acquisition was performed on an LSRII cytometer (BD Biosciences) and data were analyzed using FlowJo software version 10.2.
2.5×10^5 ID8-VEGF-Defensin cells were injected i.p. into 7-8-week-old female C57BL/6NHsd (C57Bl/6) mice. Three days after injection, 1 mg/kg SNS-032, 10 mg/kg SNS-032, or 5% DMSO in PBS (vehicle control) was administered i.p. every 3 days for the duration of the experiment. α-PD-1 (200 ug/mouse) or IgG control were given on days 17, 20, 24, and 27 after injection. α-PD-1 (1 mg/mL in saline) was utilized. Mouse IgG isotype control was purchased from Leinco Technologies and diluted in PBS.

YB5 cells [4] = experiment: RNA-seq in YB5 cells; format: cell-based, human; conditions: after excluding early response genes
Experimental: RNA from experiments in biological triplicates was isolated using RNeasy Mini Plus Kit (QIAGEN) following the manufacturer's instructions. Strand-specific RNA libraries were generated from 1 μg of RNA using TruSeq stranded total RNA with Ribo-Zero Gold (Illumina). Sequencing was performed using single end reads (50 bp, average 50 million reads per sample) on the HiSeq2500 platform (Illumina) at Fox Chase Cancer Center Genomic Facility. Sequenced reads were aligned to the hg19 genome assembly using TopHat2 (Kim, D., Pertea, G., Trapnell, C., Pimentel, H., Kelley, R., and Salzberg, S. L. (2013). Genome Biol 14, R36). The expression level and fold change of each treatment group was evaluated using EdgeR (Robinson, M. D., McCarthy, D. J., and Smyth, G. K. (2010), Bioinformatics 26, 139-140). Genes that had 0 reads across all samples were excluded. In order to get rid of batch effects, samples were normalized using RUVr method from the RUVseq package (Risso, D., Ngai, J., Speed, T. P., and Dudoit, S. (2014). Normalization of RNA-seq data using factor analysis of control genes or samples. Nat Biotechnol 32, 896-902). RNA data were deposited in the GEO database with the accession number GSE104837.

Compound: Cc1c[nH]c(-c2cnc(NCCNc3ccc(C#N)cn3)nc2-c2ccc(Cl)cc2Cl)n1 [CHR99021]
- GFP reactivation activity (YB5 cells [1]): no GFP reactivation activity

Compound: Nc1nc(N[C@H]2CC3CCC2C3)sc1C(=O)c1cccc([N+](=O)[O-])c1 (stereo partly shown) [MC180339]
- relative activity to Depsipeptide @ 500 nM % (YB5 cells [2]): 3.29%
- Emax at 1 µM (YB5 cells [2]): 3.05%
- Emax at 5 µM (YB5 cells [2]): 16.9%
- Emax at 10 µM (YB5 cells [2]): 29.2%
- Emax at 25 µM (YB5 cells [2]): 8.71%

Compound: NC1CCC(Nc2cc(-c3cccc(NCc4cccc(F)c4)n3)c(Cl)cn2)CC1 (stereo not shown) [iCDK9]
- expression of SYNE1 and MGMT (YB5 cells [3]): gene reactivation

Compound: Nc1nc(N[C@H]2CC3CCC2C3)sc1C(=O)c1cccc2nonc12 (stereo partly drawn) [MC180349, (4-amino-2-(((2S)-bicyclo[2.2.1]heptan-2-yl)amino)thiazol-5-yl)(benzo[c][1,2,5]oxadiazol-4-yl)methanone]
- relative activity to Depsipeptide @ 500 nM % (YB5 cells [2]): 10.98%
- Emax at 1 µM (YB5 cells [2]): 27.5%
- Emax at 5 µM (YB5 cells [2]): 91.2%
- Emax at 10 µM (YB5 cells [2]): 74.5%
- Emax at 25 µM (YB5 cells [2]): 36.6%

Compound: COc1cc(C(=O)c2sc(N[C@H]3CC4CCC3C4)nc2N)cc(OC)c1OC (stereo partly drawn) [MC180251, (4-amino-2-(((2S)-bicyclo[2.2.1]heptan-2-yl)amino)thiazol-5-yl)(3,4,5-trimethoxyphenyl)methanone]
- relative activity to Depsipeptide @ 50 μM % (YB5 cells [2]): 0.00%
- Emax at 1 µM (YB5 cells [2]): 0%
- Emax at 5 µM (YB5 cells [2]): 0%
- Emax at 10 µM (YB5 cells [2]): 0%
- Emax at 25 µM (YB5 cells [2]): 0%

Compound: Nc1nc(N[C@H]2CC3CCC2C3)sc1C(=O)c1ccc([N+](=O)[O-])cc1 (stereo partly shown) [MC180340]
- relative activity to Depsipeptide @ 500 nM % (YB5 cells [2]): 3.54%
- Emax at 1 µM (YB5 cells [2]): 2.83%
- Emax at 5 µM (YB5 cells [2]): 13%
- Emax at 10 µM (YB5 cells [2]): 11.6%
- Emax at 25 µM (YB5 cells [2]): 3.41%

Compound: Nc1nc(N[C@H]2C[C@@H]3CC[C@H]2C3)sc1C(=O)c1cc2c(cc1[N+](=O)[O-])OCO2 [MC180300]
- relative activity to Depsipeptide @ 500 nM % (YB5 cells [2]): 0.68%
- Emax at 1 µM (YB5 cells [2]): 3.87%
- Emax at 5 µM (YB5 cells [2]): 35.6%
- Emax at 10 µM (YB5 cells [2]): 51.6%
- Emax at 25 µM (YB5 cells [2]): 46.9%

Compound: O=C(/C=C/N1C[C@H]2C[C@@H]1CN2c1ccccn1)c1ccccc1O [PFI-3]
- effect on GFP activation by HH1 or iCDK9 (YB5 cells [1]; 72 hr daily pre-treatment followed by 24 hr co-treatment): inhibited GFP activation

Compound: Nc1nc(N[C@H]2CC3CCC2C3)sc1C(=O)c1ccc2nonc2c1 (stereo partly shown) [MC180345]
- relative activity to Depsipeptide @ 500 nM % (YB5 cells [2]): 1.87%
- Emax at 1 µM (YB5 cells [2]): 3.58%
- Emax at 5 µM (YB5 cells [2]): 3.61%
- Emax at 10 µM (YB5 cells [2]): 3.99%
- Emax at 25 µM (YB5 cells [2]): 12.6%

Compound: Nc1nc(N[C@H]2CC3CCC2C3)sc1C(=O)c1cc2c(cc1[N+](=O)[O-])OCCO2 (stereo partly shown) [MC180312]
- relative activity to Depsipeptide @ 50 μM % (YB5 cells [2]): 6.38%
- Emax at 1 µM (YB5 cells [2]): 9.73%
- Emax at 5 µM (YB5 cells [2]): 35.6%
- Emax at 10 µM (YB5 cells [2]): 42.3%
- Emax at 25 µM (YB5 cells [2]): 9%

Compound: CC(C)(C)c1cnc(CSc2cnc(NC(=O)C3CCNCC3)s2)o1 [SNS-032]
- survival (ID8; 10 mg/kg): extend the survival of the mice significantly
- tumor burden (ID8; 10 mg/kg): reduce tumor burden
- immune cells (CD45+) and T cells (CD3+) in the tumor microenvironment (ID8; in vivo treatment, ascites fluid, flow cytometry): increased populations

Compound: N#Cc1ccccc1C(=O)c1sc(N[C@H]2CC3CCC2C3)nc1N (stereo partly drawn) [MC180342, 2-(4-amino-2-(((2S)-bicyclo[2.2.1]heptan-2-yl)amino)thiazole-5-carbonyl)benzonitrile]
- relative activity to Depsipeptide @ 500 nM % (YB5 cells [2]): 10.42%
- Emax at 1 µM (YB5 cells [2]): 22.7%
- Emax at 5 µM (YB5 cells [2]): 107%
- Emax at 25 µM (YB5 cells [2]): 78.8%

Compound: [Cl-].[Li+] [LiCl]
- GFP reactivation activity (YB5 cells [1]): no GFP reactivation activity

Compound: CN1CC[C@H](c2c(O)cc(O)c3c(=O)cc(-c4ccccc4Cl)oc23)[C@H](O)C1 [flavopiridol]
- expression of SYNE1 and MGMT (YB5 cells [3]): gene reactivation

Compound: Nc1ncn([C@H]2C[C@H](O)[C@@H](CO)O2)c(=O)n1 [DAC, decitabine]
- low expressed genes (RPKM<0.31) down (YB5 cells [4]): 7
- low expressed genes (RPKM<0.31) up (YB5 cells [4]): 1238
